Experimental data reported in US20130123358A1, “Metabolic Benefits to Butyrate as a Chronic Diet Supplement” (priority 2009, published 2013).

Tests used:
[1] = system: skeletal muscle (vastus laterais, gastrocnemius, soleus); test: Skeletal muscle fiber type and immunoblot; assay type: in vivo, mouse; settings: butyrate 5% w/w in HFD 13 weeks
Source text: Fresh fat and muscles were collected and frozen in liquid nitrogen. The whole cell lysate protein was extract in lysis buffer with sonication and analyzed in western blot as described elsewhere (16). Antibodies were used in study of myoglobin (sc-25607, Santa Cruz), PGC-1 (sc-13068, Santa Cruz), Tubulin (ab7291, Abcam), myosin (M8421, Sigma), pAMPK (Thr 172, #2531, Cell signaling) and p-p38 (sc-7975, Santa Cruz). To detect multiple signals from one membrane, the membrane was stripped with a stripping buffer. Intensity of the immunoblot signal was quantified using a computer program, ImageJ 1.37v (NIH). The mean values of results from three experiments (6 mice each group) were presented. The antibodies to PGC-1α and UCP-1 were from Dr. Thomas Gettys at Pennington Biomedical Research Center, Baton Rouge, La.
The fiber types in skeletal muscle were examined using two methods: succinate dehydrogenase (SDH) staining for […] and immunostaining of type I myosin heavy chain. In the SDH staining, mid-belly cross-sections of muscle were cut at 8 μm in a cryostat (−20° C.). After drying for 5 min at room temperature, the sections were incubated at 37° C. for 60 min in the incubation solution containing 6.5 mmol/l sodium phosphate monobasic, 43.5 mmol/l sodium phosphate biphasic, 0.6 mmol/l nitroblue tetrazolium (74032, Sigma), and 50 mmol/l sodium succinate (14160, Sigma). The sections were rinsed three times (30 sec/time) in 0.9% saline, 5 min in 15% ethanol and then mounted with aqueous mounting medium (Dakocyrtoma).
Fresh skeletal muscle was collected, embedded in gum tragacanth mixed with OCT freezing matrix, and quickly frozen in isopentane cooled in liquid nitrogen. The tissue slides were obtained through serial cross-section cutting at 8 um thickness and processed with a standard procedure. The slides was blotted with a monoclonal antibody against the type I myosin heavy chain (M8421, Sigma) at 1:200 dilution. After being washed, the slide was incubated with a biotinylated secondary antibody (BA-2000). For PGC-1 staining, paraffin sections (8 μm) of BAT or inguinal fat on slides were deparaffinized and blotted with primary antibody of PGC-1 (sc-13067, Santa Cruz) at 1:200, the sections were washed and incubated with a biotinylated secondary antibody (rabbit IgG) in ABC kit. The slides were then incubated with the ABC elite reagent (PK-6101) and color reaction was performed using the DAB substrate kit (SK-4100) for myosin I and AEC substrate kit (AEC101, Sigma) for PGC-1a according to instructions by the manufacturers.
To look for oxidative fiber in skeletal muscle, the vastus laterais muscle was isolated from mice that were fed on HFD for 13 weeks. […] A fiber type analysis was conducted in the vastus laterais, gastrocnemius (rich in glycolytic fibers) and soleus (rich in oxidative fiber). Serial cryostat sections of muscle were made from vastus lateralis, gastrocnemius (gastr.) and soleus muscle. The slides were stained with antibody against Type I myosin heavy chain for oxidative fibers. The ratio of type I fibers were increased in all of the skeletal muscle of butyrate-treated mice (data not shown). Succinate dehydrogenase staining of oxidative fibers was done on serial cryostat sections of the vastus lateralis and gastrocnemius (gastr.) muscle.
To quantify the amount of protein of type 1 myosin heavy chain and PGC-1α, whole cell lysates were prepared from muscle tissues and analyzed in an immunoblot. Signals for PGC-1α, type I myosin heavy chain (Myosin), myoglobin, phospho-AMPK and phospho-p38 (p-p38) were blotted with specific antibodies. Relative signal strength was quantified for each band and expressed in FIG. 5B. The results are the mean±SE (n=8 mice). *P<0.01, ** P<0.001 (vs. control). […] A mean value of each protein was presented in the bar figure in FIG. 5B.
AMPK and p38 activities were examined by their phosphorylation status. […]

[2] = system: HDAC; test: Histone Deacetylase Assay Kit, inhibition by butyrate isoforms; settings: Histone Deacetylase Assay Kit (Upstate), FIG. 8
Source text: Several isoforms of butyrate were purchased (Sigma Aldrich Chemicals, St. Louis, Mo.) and tested for inhibitory activity of HDAC, using a Histone Deacetylase Assay Kit (Upstate Biotechnology, Lake Placid, N.Y.).

## CCCC(=O)[O-].[Na+] [sodium butyrate]
[1]; immunoblot
  AMPK phosphorylation in muscle lysate: increase in their phosphorylation
  PGC-1α protein in muscle: significant increase
  myoglobin protein in muscle: also increased
  p38 phosphorylation in muscle lysate: increase in their phosphorylation
  type 1 myosin heavy chain protein in muscle: significant increase
[1]; vastus lateralis and gastrocnemius
  Type I fibers (succinate dehydrogenase staining): increase in Type I fibers
[1]; vastus lateralis, gastrocnemius, soleus
  ratio of type I fibers (Type I myosin heavy chain immunostaining): increased
[2]
  inhibitory activity of HDAC: inhibited HDAC
